A short description of series [1]: DPPH microplate assay (radical scavenging activity). The note with it: for Antioxidant IC50 (radical scavenging activity) / Antioxidant % inhibition (at 100 µg/mL): mean ± SEM (n = 3). The protocol: The antioxidant capacity was estimated in terms of radical scavenging activity according to a modified version of Brand-Williams method. Briefly, 100 μL of tested compounds at least 5 concentrations (dissolved in MeOH) was thoroughly mixed with 100 μL of freshly prepared DPPH solution (3 × 10^−5 M dissolved in MeOH). The reaction mixture was incubated for 30 min, then, the absorbance was read at 517 nm. Each assay was done in triplicate. IC50 value was determined by a linear regression analysis between the inhibition percentages against the concentration of tested compounds by using the Excel program.
(The DPPH test is a chemical assay of radical scavenging.)

For series [2], the target named is T1, AChE (purified enzyme from eel (Electrophorus electricus) type VI-s) (Electrophorus electricus, UniProt O42275).
T1 construct: a purified enzyme from eel (Electrophorus electricus) type VI-s; purchased Sigma (St. Louis, MO, USA); host or cells: purified from electric eel (natural source)
T1 sequence (O42275 24-633): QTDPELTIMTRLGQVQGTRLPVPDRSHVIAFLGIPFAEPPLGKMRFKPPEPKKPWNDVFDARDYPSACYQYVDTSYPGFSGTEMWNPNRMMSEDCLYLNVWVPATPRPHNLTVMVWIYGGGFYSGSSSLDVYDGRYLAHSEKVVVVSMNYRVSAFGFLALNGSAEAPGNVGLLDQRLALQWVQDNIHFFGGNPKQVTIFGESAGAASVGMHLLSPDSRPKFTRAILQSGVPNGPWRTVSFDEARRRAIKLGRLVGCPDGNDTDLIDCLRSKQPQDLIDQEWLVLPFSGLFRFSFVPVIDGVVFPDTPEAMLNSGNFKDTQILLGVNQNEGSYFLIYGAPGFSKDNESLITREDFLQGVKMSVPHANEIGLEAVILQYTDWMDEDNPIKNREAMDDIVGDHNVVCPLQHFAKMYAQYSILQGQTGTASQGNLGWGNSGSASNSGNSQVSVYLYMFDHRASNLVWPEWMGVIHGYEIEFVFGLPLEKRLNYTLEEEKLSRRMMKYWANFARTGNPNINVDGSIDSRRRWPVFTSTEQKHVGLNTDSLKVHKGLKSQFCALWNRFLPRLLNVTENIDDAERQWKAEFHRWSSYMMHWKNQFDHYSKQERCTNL
Nature of the series: biochemical. The settings on record: mean ± SEM (n = 3); for inhibition at 100 µg/mL: read-out: Anticholinesterase (using purified enzyme from E. electricus) % inhibition (at 100 µg/mL). How it is done:
Ellman's colorimetric method and modified method using 96-well microplates were used. Briefly, […], the product of hydrolysis reaction of ACh by cholinesterase, will react with DTNB to give 2-nitro-5-thiobenzoate (NTB^−), which ionizes to the NTB^2- dianion (in water at pH 8). This NTB^2- ion appears as yellow, which is quantified by measuring the absorbance of visible light at 405 nm. Briefly, tested compound was prepared in buffer a containing 50% MeOH. In a 96-well microtiter plate, 25 μL of tested sample was added to 200 μL reaction medium that consisted of 50 μL of buffer (50 mM TrisHCl pH 8.0) containing 0.1% BSA, 125 μL of 3 mM DTNB in buffer containing 0.1 M NaCl, and 0.02 M MgCl2·2H2O and 25 μL of 15 mM ATCI in deionized water. These contents were mixed and preincubated for 5 min at 37°C. The plate was pre-read at 405 nm using a microplate reader (TECAN M200, Switzerland). Thereafter, the reaction was initiated by the addition of 25 μL of AChE (0.22 U/mL). After 20 min incubation at 37°C, absorbance was measured again within 4–7 min. The reaction control consisted of reaction medium (200 μL), 25 μL of enzyme, and 25 μL of 50% MeOH in buffer. Two blanks were also carried out (with and without sample), and MeOH was used as the solvent control. […] Each assay was done in triplicate.

Series [3] has as its target cellular AChE of SK-N-SH cells (Homo sapiens, UniProt P22303). Nature of the series: cell-based. The arrangement: host or cells: SK-N-SH human neuroblastoma cells. The settings on record: for IC50: mean ± SEM (n = 3), read-out: Anticholinesterase (using neuroblastoma cell) IC50 (converted); for inhibition at 100 µg/mL: read-out: Anticholinesterase (using neuroblastoma cell) % inhibition (at 100 µg/mL), 100 µg/mL, mean ± SEM (n = 3). How it is done:
The human neuroblastoma cell line SK-N-SH was purchased from the American Type Culture Collection (Manassas, VA, USA). The SK-N-SH cells were cultured in minimum essential medium from Gibco (California, USA), supplemented with 10% heat inactivated FBS, 2% supplementary amino acid solution, and 1% Glutamax (Gibco, California, USA), 1% penicillin/streptomycin. Incubation was carried out at 37°C in a humidified atmosphere of 5% CO2-95% […] atmosphere. Cells were seeded into 96-well microplates (Nunc, Roskilde, Denmark) at a density of 1 × 10^5 cells/mL (100 μL in each well). Experiments were carried out after 24 h of seeding.
One of the important neuronal properties of SK-N-SH cells is the synthesis of neurotransmitter enzymes. The inhibition activity of samples on this cell line was investigated by the modified Ellman's colorimetric method. The condition was slightly modified to enable the cellular enzyme to work properly. Briefly, 25 μL of sample dissolved in buffer containing 50% methanol, 100 μL of 3 mM DTNB in buffer containing 0.1 M NaCl and 0.02 M MgCl2·2H2O, and 25 μL of 15 mM ATCI in deionized water were added to the well containing 100 μL of the cells. The absorbance at 405 nm was measured by a microplate reader (TECAN M200, Switzerland). All assays were done in triplicate.

Series [4] can be described thus: in vitro. The class given is cell-based. The note with it: mouse.
Procedure: The exponentially grown cultures indicated the cells density by trypan blue exclusion assay. Then, neuronal differentiation was induced by seeding 2 × 10^6 cells/mL cell in a 100 mm bacteriological grade culture dish containing 10 mL α-MEM supplemented with 5% FBS, 1% antibiotics-antimycotic solution, and 0.5 μM RA. […] After 4 days of RA treatment, aggregates were dissociated with trypsin, washed, resuspended on poly-L-lysine-precoated 96-well plates (plates were previously coated with 50 μg/mL poly-L-lysine dissolved in PBS for overnight and sterilized under UV light for 30 min) at a cell density of 7 × 10^4 cells/mL (150 μL/well) in α-MEM supplemented with 10% FBS and 1% antibiotics-antimycotic solution, and incubated for 24 h. Ara-C (10 μM) was added at day one after plating to inhibit the proliferation of nonneuronal cells. […]
The procedure was carried out on P19-derived neurons cultured in a 96-well plate [29]. […] The data were expressed as the mean ± SEM (n = 3), with the medium as a control representing 100% cell viability.
Series [5] relates to P19-derived neurons. Nature of the series: Neuritogenic assay (neurite number and length). Format: cell-based, Murine. The note with it: 1 nM, 24 h, 30 neurons measured. How it is done:
Murine P19 embryonic carcinoma cells were purchased from American Type Culture Collection (ATCC), USA. P19 cells were cultured as described by Mcburney in a slightly modification. In brief, the undifferentiated P19 cells were cultured as monolayers in α-MEM with 7.5% NCS, 2.5% FBS, and 1% antibiotics-antimycotic solution in a 25-cm^2 tissue culture flask, incubated at 37°C in a humidified atmosphere of 5% CO2. Cells in monolayer cultures were maintained in exponential growth phase by subculturing every 2 days until use.
The exponentially grown cultures indicated the cells density by trypan blue exclusion assay. Then, neuronal differentiation was induced by seeding 2 × 10^6 cells/mL cell in a 100 mm bacteriological grade culture dish containing 10 mL α-MEM supplemented with 5% FBS, 1% antibiotics-antimycotic solution, and 0.5 μM RA. […]
The assay was carried out with P19-derived neurons cultured in a poly-L-lysine-precoated 6-well plate. […] Average length and number of neurites of 30 neurons from the assay were measured. […] The data were expressed as the mean ± SEM from three independent experiments.

Series [6] relates to P19-derived neurons. Nature of the series: Neuroprotective activity against oxidative stress induced by serum deprivation (XTT). The class given is cell-based, Murine. The note with it: 1 nM, 24 h. A general note: Formazan colour is commonly taken as a measure of viable cells.
Procedure: Murine P19 embryonic carcinoma cells were purchased from American Type Culture Collection (ATCC), USA. P19 cells were cultured as described by Mcburney [24, 25] in a slightly modification [26, 27]. In brief, the undifferentiated P19 cells were cultured as monolayers in α-MEM with 7.5% NCS, 2.5% FBS, and 1% antibiotics-antimycotic solution in a 25-cm^2 tissue culture flask, incubated at 37°C in a humidified atmosphere of 5% CO2. Cells in monolayer cultures were maintained in exponential growth phase by subculturing every 2 days until use.
The blank control was cultured in α-MEM supplemented with 10% FBS and 10 μM Ara-C. The cell survival ability was measured using the XTT method.

Chain of cellular AChE of SK-N-SH cells (P22303 32-614): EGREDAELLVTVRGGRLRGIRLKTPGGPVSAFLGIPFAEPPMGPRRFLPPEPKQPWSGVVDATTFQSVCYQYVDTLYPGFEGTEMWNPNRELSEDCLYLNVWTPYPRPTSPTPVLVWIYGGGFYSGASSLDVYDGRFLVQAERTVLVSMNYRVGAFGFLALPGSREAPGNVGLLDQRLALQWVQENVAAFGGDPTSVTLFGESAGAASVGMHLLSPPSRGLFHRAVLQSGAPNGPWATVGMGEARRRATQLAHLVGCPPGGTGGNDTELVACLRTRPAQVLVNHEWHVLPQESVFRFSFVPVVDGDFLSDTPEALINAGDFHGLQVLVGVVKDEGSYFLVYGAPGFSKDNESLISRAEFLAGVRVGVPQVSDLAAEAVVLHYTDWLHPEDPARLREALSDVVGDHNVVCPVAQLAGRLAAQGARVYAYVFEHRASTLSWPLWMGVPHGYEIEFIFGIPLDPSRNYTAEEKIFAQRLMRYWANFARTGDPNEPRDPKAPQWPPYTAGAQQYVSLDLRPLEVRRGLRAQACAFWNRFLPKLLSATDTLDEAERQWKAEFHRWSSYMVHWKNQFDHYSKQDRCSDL

On to `O=C1O[C@H]([C@@H](O)CO)C(O)=C1O` [Ascorbic acid, reference compound], for which, in series [1], the “Antioxidant IC50 (radical scavenging activity)” value (from here on “Antioxidant IC50”) was 10.52 ± 0.48 µg/mL.
`O=C(O)c1cc(O)c(O)c(O)c1` [Gallic acid]: the “Antioxidant % inhibition (at 100 µg/mL)” value in series [1] turned out to be 94.76 ± 0.51%. Moreover, in series [1], the “Antioxidant IC50” value was 4.83 ± 0.02 µg/mL. In addition, the values for the IC50 in series [2] (read-out: Anticholinesterase (using purified enzyme from E. electricus) IC50 (converted)) and in series [3] were 74.8 µM and 16.4 µM, respectively. Further, the values for the inhibition at 100 µg/mL in series [2] and in series [3] were 73.64 ± 0.06% and 90.7 ± 2.66%, respectively.
For `O=c1c(O)c(-c2ccc(O)c(O)c2)oc2cc(O)cc(O)c12` [Quercetin, 3,3′,4′,5,7-pentahydroxyflavone], the “Antioxidant % inhibition (at 100 µg/mL)” value in series [1] came to 92.61 ± 0.99%. For the same molecule, the IC50 in series [1] (converted to molar, read-out: Antioxidant activity IC50 in micromolar range) is 9.4 µM; in series [3], 121 µM. Moreover, in series [1], the “Antioxidant IC50” value is recorded as 3.18 ± 0.07 µg/mL. Besides, the figures for the inhibition at 100 µg/mL in series [2] and in series [3] were 80.9 ± 2.52% and 82 ± 3.34%, respectively. Also, in series [4], the IC50 at 18 h is > 10 µM. For the same molecule, the viability at 24 h, 0.001 µM in series [4] (1 nM, 24 h treatment, relative to control (100%), read-out: % cell viability of cultured neurons) was > 100%. The same molecule yielded a Neurite length in series [5] of 139.00 ± 108.80 μm. Also, the “Cell survival in serum-supplemented culture” value in series [6] (compared to the control (P19SM)) was 128.01%. Further, the “Cell survival in serum-deprived culture” value in series [6] (serum-free α-MEM, serum deprivation alone 31.16%) is 88.29%.
Turning to `Cc1c(C)c2c(c(C)c1O)CCC(C)(C(=O)O)O2` (centres unmarked) [Trolox, reference compound], the “Antioxidant IC50” value in series [1] was 12.54 ± 0.89 µg/mL.
Regarding `COC1=C2C[C@@H](C)C[C@H](OC)[C@H](O)[C@@H](C)/C=C(\C)[C@H](OC(N)=O)[C@@H](OC)/C=C\C=C(/C)C(=O)NC(=CC1=O)C2=O` [geldanamycin, Geldanamycin, reference compound], in series [5], the Amount of neurites worked out at 2.03 ± 1.30.

Usually IC50 stands for the concentration that gives 50% inhibition. Broadly, the viability is a read-out of living cells in per cent, often relative to untreated cells.

The values above are taken from PMC3693115 (Evidence-based Complementary and Alternative Medicine : eCAM, 2013).
